# Columns and labels:
# protein kinase D (PKD) = details: literature (Gschwendt et al., 1996; Sharlow et al., 2008); cited from earlier work
# [1] = test system: IFNAR1 Ser535 phosphorylation; assay: IFN-α-induced Ser535 (degron) phosphorylation of IFNAR1 in cells, IP-immunoblot with anti-pS535; assay type: cell-based, human; details: 293T cells, inhibitor pre-treatment, IFN-α
# Description: (§1) Immunoprecipitation and immunoblotting procedures are described elsewhere (Fuchs et al, 1999, Oncogene 18:2039-2046). Protein degradation was carried out by cycloheximide (CHX, used at 20 μg/ml) chase. IFNAR1 internalization assay was carried out using the Fluorescence-based assay as described elsewhere (Kumar et al., 2007, J Cell Biol 179:935-950). BAY 43-9006 was obtained as a gift. Recombinant human IFN-a2 (Roferon) was purchased from Roche. Other reagents or inhibitors were purchased from commercial vendors.
# (§2) Antibodies against Flag, GST and j3-actin (Sigma), HA (12CA, Roche), CK1α, PICD1/2 (PKCμ), PKD3 (PKCν), Tyk2, intracellular domain of hIFNAR1 and PKR, (Santa Cruz), anti-pan-phospho-tyrosine (4G10), phospho-Stat1 and Stat1 (Cell signaling), phospho-S710 of PKD2 (Biosource), PKD2 (Bethyl Laboratories), mIFNAR1 (Leinco) and ubiquitin (FK2, Biomol) were purchased. AA3, GB8 and EAl2 antibodies which recognize endogenous IFNAR1 (Goldman et al., 1999) and antibodies against IFNAR1 phosphorylated on Ser535 (pS535; (Kumar et al., 2004, J Biol Chem 279:46614-46620)) were described previously. Secondary antibodies conjugated to horseradish peroxidase were purchased from Chemicon and LI-COR. Immunoprecipitation and immunoblotting procedures are described elsewhere (Fuchs et al, 1999, Oncogene 18:2039-2046). Protein degradation was carried out by cycloheximide (CHX) chase in the presence of CHX (20 μg/ml). Immunoblot detection and quantification were carried out using the LI-COR's Odyssey Infrared Imaging System.
# Stat1 = Stat1 tyrosine phosphorylation in response to IFN-α, immunoblot; assay type: cell-based, human; details: HeLa cells, inhibitor pre-treatment 1 h, IFN-α pulse 15 min
# 2fTGH cells = assay type: cell-based, human; details: inhibitor pre-treatment 1 h, IFN-α pulse 1-2 h, read 24 h later
# IFNAR1 = assay: Cycloheximide chase of IFNAR1 degradation; assay type: cell-based, human; details: HeLa cells, CHX chase in the presence of IFN-α
# Description: as §1
# as §2, with “Immunoprecipitation and immunoblotting procedures are described elsewhere (Fuchs et al, 1999, Oncogene 18:2039-2046). Protein degradation was carried out by cycloheximide (CHX) chase in the presence of CHX (20 μg/ml).” left out
# [2] = test system: vesicular stomatitis virus (VSV); assay type: cell-based; details: human 2fTGH cells, IFN-α 25-100 U/ml, titer 24 hr after treatments
SMILES,inhibition of / specificity against PKD (protein kinase D (PKD)),ligand-induced Ser535 phosphorylation of endogenous IFNAR1 [1],ligand-induced phosphorylation of Stat1 (Stat1),ISRE-driven luciferase transcriptional activity (2fTGH cells),rate of proteolytic turnover (ligand-stimulated degradation) of IFNAR1 (IFNAR1),protective effect of IFN-α against VSV (viral titer) [2]
O=C1NCCCc2c1oc1ccc(O)cc21 [CID755673],high specificity,significant inhibition,noticeably prolonged,robustly augmented,appreciable decrease,–
O.O.O.O.O.O.O.O.O.O=C([O-])[C@@H]1[O][Sb](=[O])([O][Sb]2(=[O])[O][C@H]([C@H](O)CO)[C@H](O)[C@H](C(=O)[O-])[O]2)[O][C@H]([C@H](O)CO)[C@@H]1O.[Na+].[Na+].[Na+] (stereo partly drawn) [SSG],–,–,–,–,–,potentiates the protective effect
